# Values quoted from earlier work, collected in patent US20110105442A2, “MEANS AND METHODS FOR CONTROLLING COMMENSALES” (Biotechnology Research And Information Network, AG …, priority 2008, published 2011).
# Where two headings read alike, the source gives them in different places.
# Tested on: certain Gram-positive and Gram-negative bacteria including commensales of the skin
# Settings: Malmstrøm et al., 2002, biofilm not assayed
structure (smiles),measurement,setting,value
"C/C=C/C1=CC(=O)[C@H](O)[C@H]1O (stereo in doubt) [Terrein, 4,5-Dihydroxy-3-(1-propenyl)-2-cyclopenten-1-one]",antibacterial activity,,weak antibacterial activity
same,antibacterial activity,listed as terrein,weak to negligible activity
